Measurements published in US9486462B2, “Formulations of aminoglycosides and fosfomycin in a combination having improved chemical properties” (CARDEAS PHARMA CORPORATION, priority 2013, dated 2016).

Legend:
[1] = cited from earlier work
[2] = commercially available; cited from earlier work
[3] = pH of amikacin starting materials; assay type: physicochemical; conditions: amikacin base, before neutralization
[4] = in vivo
Description: (§1) In clinical use, concentration of the aminoglycoside and fosfomycin are delivered to yield a concentration in the lungs that is MIC90 for the target organism. For amikacin, about […] of amikacin chloride and about […] of fosfomycin disodium are delivered to the lung (50 mg amikacin chloride and 20 mg fosfomycin in solution) using a nebulizer with an expected 15% delivery efficiency.

[5] = test system: highly resistant Gram-negative organisms; assay: Predicted lung concentration relative to MIC90, Gram-negative organisms; assay type: in vivo; conditions: most highly resistant Gram-negative organisms
Description: as §1

Staphylococcus aureus [6] = assay: Predicted lung concentration relative to MIC90, Staphylococcus aureus; assay type: in vivo
Description: as §1

pseudomonas = conditions: approximately 20 mg delivered to the lung, co-infected patients; cited from earlier work
Staphylococcus aureus [7] = conditions: cited from earlier work

Q: For gentamycin, which pKa [1] is on record?
A: The pKa was 8.2.

Q: For NCC[C@H](O)C(=O)N[C@@H]1C[C@H](N)[C@@H](O[C@H]2O[C@H](CN)[C@@H](O)[C@H](O)[C@H]2O)[C@H](O)[C@H]1O[C@H]1O[C@H](CO)[C@@H](O)[C@H](N)[C@H]1O.O=S(=O)(O)O.O=S(=O)(O)O [amikacin sulfate], which “starting pH” value [2] is on record?
A: Its value is 3.5-5.5.

Q: Which pH [3] does the source give for NCC[C@H](O)C(=O)N[C@@H]1C[C@H](N)[C@@H](O[C@H]2O[C@H](CN)[C@@H](O)[C@H](O)[C@H]2O)[C@H](O)[C@H]1O[C@H]1O[C@H](CO)[C@@H](O)[C@H](N)[C@H]1O [amikacin] here?
A: Its pH is “approximately 11”.

Q: Which results are given for amikacin chloride?
A: predicted concentration delivered to the lungs [4]: about 13,500 ug/mL; predicted lung concentration, times the MIC90 [5]: greater than 25 times

Q: With NCC[C@H](O)C(=O)N[C@@H]1C[C@H](N)[C@@H](O[C@H]2O[C@H](CN)CC[C@H]2N)[C@H](O)[C@H]1O[C@H]1O[C@H](CO)[C@@H](O)[C@H](N)[C@H]1O [arbekacin] as the compound, how does the pKa [1] read?
A: Its pKa is 10.2.

Q: Which “predicted concentration delivered to the lungs” value [4] does the source give for C[C@@H]1O[C@@H]1P(=O)(O)O [fosfomycin] here?
A: The value was “about 5400 ug/mL”.

Q: What about the “predicted peak concentration, times the MIC90” value (Staphylococcus aureus [6]) of the same compound?
A: The value was “greater than 25 times”.

Q: And the bacterial density (pseudomonas)?
A: The bacterial density was “Decreased bacterial density”.

Q: And the bacterial density (Staphylococcus aureus [7]; approximately 20 mg delivered to the lung, co-infected patients)?
A: The bacterial density was “Decreased bacterial density”.

Q: And the killing of staphylococcus (Staphylococcus aureus [7]; estimated 40 mg delivered dose versus estimated 20 mg dose)?
A: Its killing of staphylococcus is “more efficacious”.
